In one data set the test system is CD98. Put plainly: Nutrient transporter (CD98) down-regulation. The class given is cell-based.
The subject of a further data set is cancer cells. Put plainly: Cytotoxicity (IC50). Type of data set: cell-based.
Data set [1] in a line: Racemization/epimerization, deuterium incorporation and cyclization in protic solvents. Type of data set: physicochemical. Particulars: for time to complete incorporation of deuterium at C-2: D2O, room temperature; for racemization / epimerization after N-Boc deprotection: dissolved in protic solvents such as water and MeOH, gives 1:1 mixture of enantiomers or epimers. How it is done:
In the presence of D2O at room temperature, deuterium was incorporated at C-2 confirming a fast enolization followed by β-elimination and ring closure. […] The incorporation of deuterium is complete in 30 min at pH=10, and in 3 hours at pH=7.
It was therefore decided to further investigate this new structural analog and we prepared the bicyclic enantiopure pyrrolizidine 17 bearing the aryloctyl appendage on C-3, in analogy with our lead compound 3 as well as the monocyclic variant 18, to check the effect of the substituent position and the nature of the azacycles (FIG. 7).

A word on the inhibition: it is the change of the read-out against control, counted positive when it falls. A higher inhibition goes with a response far below the control. Broadly, the IC50 is the midpoint of a concentration-inhibition curve. Read a low IC50 as higher potency.

In the data set with CD98, `CCCCCCCCc1ccc(C(=O)C[C@H]2C[C@H](CO)CN2)cc1.Cl` (mixture of isomers) [Compound 12, 2-((2R,4S)-4-(Hydroxymethyl)pyrrolidin-2-yl)-1-(4-octylphenyl)ethan-1-one hydrochloride] yielded an inhibition at 2.5 µM of 44% and an inhibition at 10 µM of 50%. This molecule gave an IC50 with cancer cells of 2000 nM. In data set [1] (pH=7), the “time to complete incorporation of deuterium at C-2” value stood at 3 h. Moreover, the “time to complete incorporation of deuterium at C-2” value in data set [1] (pH=10) was 0.5 h. For the same molecule, in data set [1], the “racemization / epimerization after N-Boc deprotection” value was “prone to racemization and epimerization”. Further, the stability to epimerization result in data set [1] (pH≤3 in H2O) is “stable only in very acidic conditions”.
In the data set with CD98, `CCCCCCCCc1ccc(C(=O)C[C@@H]2CCCN2)cc1.Cl` [Compound 8, (S)-1-(4-Octylphenyl)-2-(pyrrolidin-2-yl)ethan-1-one hydrochloride] had an inhibition at 2.5 µM of 78% and an inhibition at 10 µM of 57%. Further, in the data set on cancer cells, it took 2500 nM to reach half-maximal inhibition (IC50). Also, in data set [1], the “racemization / epimerization after N-Boc deprotection” value was “prone to racemization and epimerization”.

The values are drawn from patent publication US20210261583A1, “Synthetic Cytotoxic Molecules, Drugs, Methods of Their Synthesis and Methods of Treatment” (The Regents of the University of California, priority 2018, published 2021).
